Numbers after ± are expanded uncertainties.
Experiment: refractive index (other wavelength) (dimensionless); xn = mol fraction of the nth substance listed
Conditions: 303.15 K, 101 kPa, Liquid, Standard Abbe refractometry

CC(C)OC(C)C [diisopropyl ether] + CC(C)O
refractive index
Conditions | Wavelength=486.1 nm | Wavelength=546.1 nm | Wavelength=587.6 nm | Wavelength=589.3 nm | Wavelength=632.8 nm | Wavelength=644 nm | Wavelength=706.5 nm
x1 = 0.0277 | – | 1.37435 ± 0.00032 | 1.37285 ± 0.00032 | 1.37279 ± 0.00032 | 1.37149 ± 0.00032 | 1.37119 ± 0.00032 | 1.36973 ± 0.00032
x1 = 0.0507 | – | 1.3743 ± 0.00032 | 1.3728 ± 0.00032 | 1.37274 ± 0.00032 | 1.37145 ± 0.00032 | 1.37115 ± 0.00032 | 1.36969 ± 0.00032
x1 = 0.051 | – | 1.37423 ± 0.00032 | 1.37273 ± 0.00032 | 1.37268 ± 0.00032 | 1.37138 ± 0.00032 | 1.37107 ± 0.00032 | 1.36962 ± 0.00032
x1 = 0.0717 | – | 1.37395 ± 0.00032 | 1.37244 ± 0.00032 | 1.37238 ± 0.00032 | 1.37109 ± 0.00032 | 1.37079 ± 0.00032 | 1.36934 ± 0.00032
x1 = 0.1528 | – | 1.37331 ± 0.00032 | 1.37181 ± 0.00032 | 1.37176 ± 0.00032 | 1.37047 ± 0.00032 | 1.37018 ± 0.00032 | 1.36872 ± 0.00032
x1 = 0.1553 | – | 1.37331 ± 0.00032 | 1.37181 ± 0.00032 | 1.37176 ± 0.00032 | 1.37047 ± 0.00032 | 1.37018 ± 0.00032 | 1.36872 ± 0.00032
x1 = 0.1938 | – | 1.37303 ± 0.00033 | 1.37153 ± 0.00033 | 1.37147 ± 0.00033 | 1.37018 ± 0.00033 | 1.36988 ± 0.00033 | 1.36843 ± 0.00033
x1 = 0.2029 | 1.37549 ± 0.00033 | 1.37266 ± 0.00033 | 1.37116 ± 0.00033 | 1.37111 ± 0.00033 | 1.36981 ± 0.00033 | 1.36952 ± 0.00033 | 1.36807 ± 0.00033
x1 = 0.245 | 1.37506 ± 0.00033 | 1.37223 ± 0.00033 | 1.37075 ± 0.00033 | 1.37069 ± 0.00033 | 1.36941 ± 0.00033 | 1.36911 ± 0.00033 | 1.36767 ± 0.00033
x1 = 0.297 | 1.37446 ± 0.00034 | 1.37163 ± 0.00034 | 1.37013 ± 0.00034 | 1.37008 ± 0.00034 | 1.3688 ± 0.00034 | 1.3685 ± 0.00034 | 1.36705 ± 0.00034
x1 = 0.2973 | 1.37467 ± 0.00034 | 1.37184 ± 0.00034 | 1.37036 ± 0.00034 | 1.37031 ± 0.00034 | 1.36902 ± 0.00034 | 1.36872 ± 0.00034 | 1.36727 ± 0.00034
x1 = 0.3068 | 1.37433 ± 0.00034 | 1.37149 ± 0.00034 | 1.37001 ± 0.00034 | 1.36996 ± 0.00034 | 1.36867 ± 0.00034 | 1.36837 ± 0.00034 | 1.36692 ± 0.00034
x1 = 0.398 | 1.37309 ± 0.00035 | 1.37025 ± 0.00035 | 1.36877 ± 0.00035 | 1.36872 ± 0.00035 | 1.36744 ± 0.00035 | 1.36715 ± 0.00035 | 1.3657 ± 0.00035
x1 = 0.4609 | 1.37245 ± 0.00035 | 1.3696 ± 0.00035 | 1.36818 ± 0.00035 | 1.36807 ± 0.00035 | 1.3668 ± 0.00035 | 1.3665 ± 0.00035 | 1.36501 ± 0.00035
x1 = 0.5434 | 1.37161 ± 0.00036 | 1.36879 ± 0.00036 | 1.36731 ± 0.00036 | 1.36726 ± 0.00036 | 1.36598 ± 0.00036 | 1.36567 ± 0.00036 | 1.36425 ± 0.00036
x1 = 0.6032 | 1.37096 ± 0.00037 | 1.36815 ± 0.00037 | 1.36667 ± 0.00037 | 1.36661 ± 0.00037 | 1.36533 ± 0.00037 | 1.36504 ± 0.00037 | 1.36362 ± 0.00037
x1 = 0.6371 | 1.37059 ± 0.00038 | 1.36779 ± 0.00038 | 1.36631 ± 0.00038 | 1.36626 ± 0.00038 | 1.36497 ± 0.00038 | 1.36466 ± 0.00038 | 1.36326 ± 0.00038
x1 = 0.701 | 1.36992 ± 0.00039 | 1.36711 ± 0.00039 | 1.36564 ± 0.00039 | 1.36559 ± 0.00039 | 1.36431 ± 0.00039 | 1.36401 ± 0.00039 | 1.36259 ± 0.00039
x1 = 0.754 | 1.36954 ± 0.00039 | 1.36673 ± 0.00039 | 1.36525 ± 0.00039 | 1.36519 ± 0.00039 | 1.36391 ± 0.00039 | 1.36362 ± 0.00039 | 1.36221 ± 0.00039
x1 = 0.791 | 1.36913 ± 0.0004 | 1.36633 ± 0.0004 | 1.36485 ± 0.0004 | 1.3648 ± 0.0004 | 1.36352 ± 0.0004 | 1.36323 ± 0.0004 | 1.36182 ± 0.0004
x1 = 0.8296 | 1.3688 ± 0.00041 | 1.36599 ± 0.00041 | 1.36453 ± 0.00041 | 1.36447 ± 0.00041 | 1.3632 ± 0.00041 | 1.3629 ± 0.00041 | 1.36148 ± 0.00041
x1 = 0.8864 | 1.36856 ± 0.00042 | 1.36576 ± 0.00042 | 1.3643 ± 0.00042 | 1.36424 ± 0.00042 | 1.36297 ± 0.00042 | 1.36267 ± 0.00042 | 1.36126 ± 0.00042
x1 = 0.8903 | 1.36813 ± 0.00042 | 1.36533 ± 0.00042 | 1.36386 ± 0.00042 | 1.36381 ± 0.00042 | 1.36254 ± 0.00042 | 1.36225 ± 0.00042 | 1.36083 ± 0.00042
x1 = 0.9113 | 1.36791 ± 0.00042 | 1.36511 ± 0.00042 | 1.36365 ± 0.00042 | 1.3636 ± 0.00042 | 1.36233 ± 0.00042 | 1.36203 ± 0.00042 | 1.36061 ± 0.00042
x1 = 0.9547 | 1.36747 ± 0.00043 | 1.36465 ± 0.00043 | 1.36319 ± 0.00043 | 1.36314 ± 0.00043 | 1.36187 ± 0.00043 | 1.36157 ± 0.00043 | 1.36016 ± 0.00043
x1 = 0.973 | 1.36711 ± 0.00043 | 1.3643 ± 0.00043 | 1.36285 ± 0.00043 | 1.36279 ± 0.00043 | 1.36153 ± 0.00043 | 1.36123 ± 0.00043 | 1.35983 ± 0.00043
x1 = 0.9771 | 1.36702 ± 0.00043 | 1.36421 ± 0.00043 | 1.36275 ± 0.00043 | 1.3627 ± 0.00043 | 1.36145 ± 0.00043 | 1.36115 ± 0.00043 | 1.35972 ± 0.00043
x1 = 1 | 1.36687 ± 0.00043 | 1.36406 ± 0.00043 | 1.3626 ± 0.00043 | 1.36255 ± 0.00043 | 1.3613 ± 0.00043 | 1.361 ± 0.00043 | 1.3596 ± 0.00043

— the NIST ThermoML archive (doi:10.1016/j.fluid.2014.09.014)
